According to ChEMBL document CHEMBL1136854, “Synthesis and pharmacological evaluation of aminopyrimidine series of 5-HT1A partial agonists” (Bioorg Med Chem Lett, 2009):

Experiment: in vitro
Conditions: human, liver microsomes

| SMILES | CLint scaled | CLint scaled (CL) |
| --- | --- | --- |
| c1cc(C2CCCN(CCc3cscn3)C2)nc(NC2CC2)n1 (centres undefined) | 0.9 L/h/kg | – |
| Cc1[nH]c2ccc(Cl)cc2c1CCN1CCCC(c2ccnc(NC3CC3)n2)C1 (centres undefined) | – | 8.1 L/h/kg |
| Fc1cccc2c(CCN3CCCC(c4ccnc(NC5CC5)n4)C3)c[nH]c12 (centres undefined) | – | 1.68 L/h/kg |
| O=C1CC2(CCCC2)CC(=O)N1CCCCN1CCN(c2ncccn2)CC1 [BUSPIRONE] | – | 8.88 L/h/kg |
